Experimental data reported in patent US12180248B2, “Compositions and methods for treating CNS disorders” (Sage Therapeutics, Inc., priority 2014, dated 2024).

Target: rat brain cortical membranes ([35S]-TBPS binding; GABAA receptor)
Experiment: Steroid inhibition of [35S]-TBPS binding (radioligand displacement)
Settings: 3 nM [35S]-TBPS, in the presence of 5 μM GABA, 90 min at room temp
Description: TBPS binding assays using rat brain cortical membranes in the presence of […] GABA has been described (Gee et al, J. Pharmacol. Exp. Ther. 1987, 241, 346-353; Hawkinson et al, Mol. Pharmacol. 1994, 46, 977-985; Lewin, A. H et al., Mol. Pharmacol. 1989, 35, 189-194).
Briefly, cortices are rapidly removed following decapitation of carbon dioxide-anesthetized Sprague-Dawley rats (200-250 g). The cortices are homogenized in 10 volumes of ice-cold 0.32 M sucrose using a glass/teflon homogenizer and centrifuged at 1500×g for 10 min at 4° C. The resultant supernatants are centrifuged at 10,000×g for 20 min at 4° C.; to obtain the P2 pellets. The P2 pellets are resuspended in 200 mM NaCl/50 mM Na—K phosphate pH 7.4 buffer and centrifuged at 10,000×g for 10 min at 4° C. This washing procedure is repeated twice and the pellets are resuspended in 10 volumes of buffer. Aliquots (100 μL) of the membrane suspensions are incubated with 3 nM [^35S]-TBPS and 5 μL aliquots of test drug dissolved in dimethyl sulfoxide (DMSO) (final 0.5%) in the presence of 5 μM GABA. The incubation is brought to a final volume of 1.0 mL with buffer. Nonspecific binding is determined in the presence of 2 μM unlabeled TBPS and ranged from 15 to 25%. Following a 90 min incubation at room temp, the assays are terminated by filtration through glass fiber filters (Schleicher and Schuell No. 32) using a cell harvester (Brandel) and rinsed three times with ice-cold buffer. Filter bound radioactivity is measured by liquid scintillation spectrometry. Non-linear curve fitting of the overall data for each drug averaged for each concentration is done using Prism (GraphPad). […] The concentration of test compound producing 50% inhibition (IC50) of specific binding and the maximal extent of inhibition (Imax) are determined for the individual experiments with the same model used for the overall data and then the means±SEM.s of the individual experiments are calculated.
Various compounds are or can be screened to determine their potential as modulators of [^35S]-TBPS binding in vitro. These assays are or can be performed in accordance with the above discussed procedures.

Structure (SMILES) | IC50 [nM]
C[C@@H](C(=O)[C@H]1CC[C@H]2[C@@H]3CC[C@@H]4C[C@](C)(O)CC[C@@H]4[C@H]3CC[C@]12C)n1nc2ccccc2n1 [Compound 6, (S)-2-(2H-benzo[d][1,2,3]triazol-2-yl)-1-((3R,5R,8R,9R,10S,13S,14S,17S)-3-hydroxy-3,1:3-dimethylhexadecahydro-1H-cyclopenta[a]phenanthren-17-yl)propan-1-one] | < 50
C[C@H](C(=O)[C@H]1CC[C@H]2[C@@H]3CC[C@@H]4C[C@](C)(O)CC[C@@H]4[C@H]3CC[C@]12C)n1nccn1 [Compound 1, (R)-1-((3R,5R,8R,9R,10S,13S,14S,17S)-3-hydroxy-3,13-dimethylhexadecahydro-1H-cyclopenta[a]phenanthren-17-yl)-2-(2H-1,2,3-triazol-2-yl)propan-1-one] | 250 to 500
C[C@@H](C(=O)[C@H]1CC[C@H]2[C@@H]3CC[C@@H]4C[C@](C)(O)CC[C@@H]4[C@H]3CC[C@]12C)n1nccn1 [Compound 2, (S)-1-((3R,5R,8R,9R,10S,13S,14S,17S)-3-hydroxy-3,13-dimethylhexadecahydro-: 1H-cyclopenta[a]phenanthren-17-yl)-2-(2H-1,2,3-triazol-2-yl)propan-1-one] | 50 to 100
C[C@@H](C(=O)[C@H]1CC[C@H]2[C@@H]3CC[C@@H]4C[C@](C)(O)CC[C@@H]4[C@H]3CC[C@]12C)n1cc(C#N)cn1 [Compound 3, 1-((S)-1-((3R,5R,8R,9R,10S,13S,14S,17S)-3-hydroxy-3,13-dimethylhexadecahydro-1H-cyclopenta[a]phenanthren-17-yl)-1-oxopropan-2-yl)-1H-pyrazole-4-carbonitrile] | < 50
C[C@H](C(=O)[C@H]1CC[C@H]2[C@@H]3CC[C@@H]4C[C@](C)(O)CC[C@@H]4[C@H]3CC[C@]12C)n1nc2ccccc2n1 [Compound 7, (R)-2-(2H-benzo[d][1,2,3]triazol-2-yl)-1-((3R,5R,8R,9R,10S,13S,14S,17S)-3-hydroxy-3,13-dimethylhexadecahydro-1H-cyclopenta[a]phenanthren-17-yl)propan-1-one] | 250 to 500
C[C@H](C(=O)[C@H]1CC[C@H]2[C@@H]3CC[C@@H]4C[C@](C)(O)CC[C@@H]4[C@H]3CC[C@]12C)n1cc(C#N)cn1 [Compound 4, 1-((R)-1-((3R,5R,8R,9R,10S,13S,14S,17S)-3-hydroxy-3,13-dimethylhexadecahydro-1H-cyclopenta[a]phenanthren-17-yl)-1-oxopropan-2-yl)-1H-pyrazole-4-carbonitrile] | 50 to 100
CC(C(=O)[C@H]1CC[C@H]2[C@@H]3CC[C@@H]4C[C@](C)(O)CC[C@@H]4[C@H]3CC[C@]12C)N1CCOCC1 (stereo partly drawn) [Compound 5, 1-((3R,5R,8R,9R,10S,13S,14S,17S)-3-hydroxy-3,13-dimethylhexadecahydro-1H-cyclopenta[a]phenanthren-17-yl)-2-morpholinopropan-1-one] | 250 to 500
